Experimental data as given in patent US6331555A, “Treatment of platelet derived growth factor related disorders such as cancers” (priority 1999, dated 2001).

Columns and labels:
[1] = test system: spleen cells; experiment: Normal immune function in naive mice; format: in vivo, mouse
From the text: At the indicated times, animals were sacrificed, and the spleens were aseptically removed and placed into sterile medium. Spleens were processed into single cell suspensions by grinding between sterile frosted glass microscope slides. After a single wash to remove tissue debris, the spleen cells were resuspended in a hypotonic ammonium chloride buffer to lyse erythrocytes. Lymphocytes were washed and resuspended to the appropriate concentrations in complete medium, consisting of RPMI plus 10% heat-inactivated FBS, 2 mM glutamine, 50 μM β-mercaptoethanol, and penicillin-streptomycin. The responses of the lymphocytes were examined in the following assays according to accepted procedures (Current Protocols in Immunology. Coligan, J. E., Kruisbeek, A. M., Margulies, D. H., Shevach, E. M., Strober, W. (eds.) John Wiley and Sons, Inc., 1992).
The T-cell mitogen, ConA, and the T-cell independent B-cell mitogen, LPS, were added to 96-well round-bottom wells at the indicated concentrations. Lymphocytes from normal, vehicle-dosed, and drug-dosed animals were added at a final concentration of 2.5×10^5 /well. Cultures were usually set up in triplicate or quadruplicate. The plates were incubated at 37° C. in a humidified atmosphere containing 5% CO2 for the indicated times. Supernatants (approximately 100 μL) were carefully removed from the wells and stored at -80° C. for lymphokine and immunoglobulin analyses. To measure proliferation of the lymphocytes, 1 μCi of ^3 H-thymidine was added to each well, and the plates were incubated for 6 hr. The cultures were harvested onto glass fiber filters, and the incorporated radioactivity was quantitated by liquid scintillation counting (Betaplate, Wallac).
Lymphocytes from normal, vehicle-dosed, and drug-dosed animals were plated at 2.5×10^5 /well in round-bottom 96-well plates. Stimulator cells were then added at the same cell concentration. The stimulator cells consisted of syngeneic or allogeneic lymphocytes which had been treated with 50 μg/mL of mitomycin C for 30 min prior to the assay. The plates were incubated for 3 to 4 days, at which time supernatants were harvested and the cultures were pulsed as described for the mitogen assays.
Supernatants from mitogen and MLR cultures were assayed for IL-2 and IL-6 content by the ability to support the growth of factor-dependent cell lines. HT-2 cells (10^4 /well, IL-2-dependent) and 7TD1 cells (2×10^3 /well, IL-6-dependent) were plated in 96-well flat-bottom plates, in 50 μL/well. Supernatants were added in 50 μL/well, and the plates were incubated overnight (HT-2) or four days (7TD1). Cellular proliferation was determined in the MTT colorimetric assay (Appendix 3.1).
Flat bottom 96-well EIA plates were coated with goat anti-mouse Ig antibodies (Southern Biotechnology) overnight at 4° C. The plates were blocked by the addition of PBS+1% BSA. After washing with PBS, supernatants from murine mitogen and MLR cultures were added and incubated at room temperature for 1 hr. The plates were washed with PBS, then HRP-labeled goat anti-mouse Ig antibodies were added and incubated at room temperature for 1 hr. The plates were washed and developed by the addition of substrate (ABTS).
The animals were sacrificed and their spleen cells were assayed in vitro for responses to ConA (a T-cell mitogen), LPS (a T-cell independent B-cell mitogen), and alloantigens (C3H/HeJ spleen cells) as described in Appendix 5. The IL-2, IL-6, Ig content and cellular proliferation were measured after 48 hr (mitogens) or 72 hr (alloantigens).

[2] = test system: PDGF-R; experiment: PDGF-R autophosphorylation, T98G glioblastoma cells; format: cell-based, human; conditions: 200, 500, 1000 mM; 20 ng/ml PDGF-BB
Method: Proteins were then separated by SDS-polyacrylamide gel electrophoresis (PAGE). Proteins containing phosphorylated tyrosine were identified by western blotting with an anti-phosphotyrosine antibody. The level of phosphorylated tyrosine was determined by quantitating the amount of bound anti-phosphotyrosine. Quantitation was carried out by peak area integration using a Molecular Dynamics Computing Densitometer (Model 300S), and Image Quant v3.0 software (Molecule Dynamics). Data were expressed as relative peak.intensity (phosphorylation of a receptor divided by the total amount of phosphorylated tyrosine).
T98G cells were plated in MCDB105 medium containing 2% FBS and incubated for 24 hours at 37° C. […] The cells were then treated with ligand for 10 minutes (20 ng/ml PDGF-BB or 50 ng/ml EGF). The cells were lysed and the level of phosphorylated receptor was quantitated as described in Example 1.

[3] = test system: C6 cells; experiment: Intracerebral C6 tumor, athymic rats, survival; format: in vivo, rat; conditions: IC C6, athymic rats
Method: FIG. 5. In two separate experiments, C6 cells (5×10^4 cells in 20 μL [Expt #1] or 5 μL [Expt #2]) were implanted into the cerebrum of athymic rats. […] V=vehicle control. n=7 to 8 animals per group. * P=0.0002; ** P=0.0003 compared to vehicle control.
For the rat IC model, rats (Wistar, Sprague Dawley, Fisher 344, or athymic R/Nu; approximately 200 g) were anesthetized by an IP injection of 100 mg/kg Ketaset (ketamine hydrochloride; Aveco, Fort Dodge, Iowa) and 5 mg/kg Rompun (xylazine, 2% solution; Bayer, Germany). After onset of anesthesia, the scalp was shaved and the animal was oriented in a stereotaxic apparatus (Stoelting, Wood Dale, Ill.). The skin at the incision site was cleaned 3 times with alternating swabs of 70% ethanol and 10% Povidone-Iodine. A median 1.0-1.5 cm incision was made in the scalp using a sterile surgical blade. The skin was detached slightly and pulled to the sides to expose the sutures on the skull surface. A dental drill (Stoelting, Wood Dale, Ill.) was used to make a small (1-2 mm diameter) burrhole in the skull approximately 1 mm anterior and 2 mm lateral to the bregma. The cell suspension was drawn into a 50 μL Hamilton syringe fitted with a 23 or 25 ga standard bevel needle. […]

For `Cc1oncc1C(=O)Nc1ccc(C(F)(F)F)cc1` [Compound A10, 5-methylisoxazole-4 carboxylic acid-(4-trifluromethyl)-anilide], the 3H-thymidine uptake ([1]; Allo, d7, vs vehicle) was 0, the IL-2 production ([1]; Allo, d7, vs vehicle) was 0 and the IL-6 production ([1]; Allo, d7, vs vehicle) was 0. It also gave an Ig production ([1]; Allo, d7, vs vehicle) of 0, a 3H-thymidine uptake ([1]; Allo, d21, vs vehicle) of 0 and an IL-2 production ([1]; Allo, d21, vs vehicle) of 0. It also gave an IL-6 production ([1]; Allo, d21, vs vehicle) of 0, an Ig production ([1]; Allo, d21, vs vehicle) of 0 and a 3H-thymidine uptake ([1]; ConA, d7, vs vehicle) of 0. The IL-2 production ([1]; ConA, d7, vs vehicle) was 0, the IL-6 production ([1]; ConA, d7, vs vehicle) was “++” and the Ig production ([1]; ConA, d7, vs vehicle) was 0. It also gave a 3H-thymidine uptake ([1]; ConA, d21, vs vehicle) of 0, an IL-2 production ([1]; ConA, d21, vs vehicle) of 0 and an IL-6 production ([1]; ConA, d21, vs vehicle) of 0. For the same compound, the Ig production ([1]; ConA, d21, vs vehicle) was 0, the 3H-thymidine uptake ([1]; LPS, d7, vs vehicle) was 0 and the IL-2 production ([1]; LPS, d7, vs vehicle) was 0. The IL-6 production ([1]; LPS, d7, vs vehicle) was 0, the Ig production ([1]; LPS, d7, vs vehicle) was “+” and the 3H-thymidine uptake ([1]; LPS, d21, vs vehicle) was 0. The IL-2 production ([1]; LPS, d21, vs vehicle) was 0, the IL-6 production ([1]; LPS, d21, vs vehicle) was 0 and the Ig production ([1]; LPS, d21, vs vehicle) was “+/-”. For the same compound, the “autophosphorylation of PDGF-R by PDGF” value [2] was “inhibited autophosphorylation of PDGF-R by PDGF” and the survival [3] was “slight but significant positive effect on the survival”.
